Values joined by “and” are separate entries in the source; they are usually repeats but may differ in a detail not shown here. Equal entries are not always repeated. Toxic doses and inconclusive results are not listed. The calls were made as follows: active = survival T/C of 150% or more; inactive = T/C below 125% in these data.
System: BDF1 mice, P388 leukemia ip, median survival T/C
Assay: NCI In Vivo Anticancer Drug Screen. Data for tumor model P388 Leukemia (intraperitoneal) in B6D2F1 (BDF1) mice
Conditions: endpoint: median survival time, higher = longer survival
Outline: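 In tumour-bearing mice, survival after compound treatment is set against the vehicle group and given as a quotient.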

[1] = dose: 100.0 mg/kg/injection, schedule: Q01DX009 (ip), vehicle: saline with Tween-80
[2] = dose: 100.0 mg/kg/injection, schedule: Q01DX001 (ip), vehicle: saline with Tween-80
[3] = dose: 200.0 mg/kg/injection, schedule: Q01DX001 (ip), vehicle: saline with Tween-80
[4] = dose: 400.0 mg/kg/injection, schedule: Q01DX001 (ip), vehicle: saline with Tween-80
[5] = dose: 25.0 mg/kg/injection, schedule: Q01DX009 (ip), vehicle: saline with Tween-80
[6] = dose: 50.0 mg/kg/injection, schedule: Q01DX009 (ip), vehicle: saline with Tween-80
[7] = dose: 100.0 mg/kg/injection, schedule: Q01DX001 (ip), vehicle: Klucel (hydroxypropylcellulose) (HPC)
[8] = dose: 200.0 mg/kg/injection, schedule: Q01DX001 (ip), vehicle: Klucel (hydroxypropylcellulose) (HPC)
[9] = dose: 400.0 mg/kg/injection, schedule: Q01DX001 (ip), vehicle: Klucel (hydroxypropylcellulose) (HPC)
[10] = dose: 100.0 mg/kg/injection, schedule: Q01DX009 (ip), vehicle: Klucel (hydroxypropylcellulose) (HPC)
[11] = dose: 200.0 mg/kg/injection, schedule: Q01DX009 (ip), vehicle: Klucel (hydroxypropylcellulose) (HPC)
[12] = dose: 400.0 mg/kg/injection, schedule: Q01DX009 (ip), vehicle: Klucel (hydroxypropylcellulose) (HPC)

Measured: T/C

CC(=O)Nc1ccn(CC(=O)c2ccco2)c(=O)n1
inactive: [1] 104 % of control | dose: 100.0 mg/kg/injection, schedule: Q04DX003 (ip), vehicle: saline with Tween-80 105 % of control | dose: 200.0 mg/kg/injection, schedule: Q01DX009 (ip), vehicle: saline with Tween-80 95 % of control | dose: 200.0 mg/kg/injection, schedule: Q04DX003 (ip), vehicle: saline with Tween-80 105 % of control | dose: 400.0 mg/kg/injection, schedule: Q01DX009 (ip), vehicle: saline with Tween-80 90 % of control | dose: 400.0 mg/kg/injection, schedule: Q04DX003 (ip), vehicle: saline with Tween-80 100 % of control

c1ccc(CC(Cc2ccccc2)c2nc3ccccc3s2)cc1
inactive: dose: 75.0 mg/kg/injection, schedule: Q04DX003 (ip), vehicle: saline 100 % of control | dose: 150.0 mg/kg/injection, schedule: Q04DX003 (ip), vehicle: saline 100 % of control | dose: 300.0 mg/kg/injection, schedule: Q04DX003 (ip), vehicle: saline 95 % of control

O=C1C(=O)c2ccccc2-c2ccccc21
inactive: dose: 0.75 mg/kg/injection, schedule: Q01DX009 (ip), vehicle: carboxymethylcellulose (CMC) 100 % of control | dose: 1.5 mg/kg/injection, schedule: Q01DX009 (ip), vehicle: carboxymethylcellulose (CMC) 109 % of control | dose: 3.0 mg/kg/injection, schedule: Q01DX009 (ip), vehicle: carboxymethylcellulose (CMC) 95 % of control | dose: 6.0 mg/kg/injection, schedule: Q01DX009 (ip), vehicle: carboxymethylcellulose (CMC) 114 % of control

O=Cc1c2c(c(C=O)c3c1OCO3)OCO2
inactive: [2] 97 % of control | [3] 97 % of control | [4] 90 % of control

Cn1nnn2c(-c3ccccc3)nnc12
inactive: [5] 115 % of control | [6] 110 % of control | [1] 95 % of control

C[Si]1(C)CCCSC1
inactive: dose: 12.5 mg/kg/injection, schedule: Q01DX009 (ip), vehicle: saline with Tween-80 89 % of control | [5] 91 % of control | [6] 93 % of control | [1] 103 % of control

CNC(=S)N(C)C
inactive: dose: 50.0 mg/kg/injection, schedule: Q01DX001 (ip), vehicle: saline 95 % of control | dose: 100.0 mg/kg/injection, schedule: Q01DX001 (ip), vehicle: saline 103 % of control and 104 % of control | dose: 200.0 mg/kg/injection, schedule: Q01DX001 (ip), vehicle: saline 95 % of control and 104 % of control | dose: 400.0 mg/kg/injection, schedule: Q01DX001 (ip), vehicle: saline 91 % of control

Cc1nc(N2CC2)nc(N2CC2)c1[N+](=O)[O-]
inactive: dose: 0.62 mg/kg/injection, schedule: Q01DX010 (ip), vehicle: saline 122 % of control | dose: 0.63 mg/kg/injection, schedule: Q01DX010 (ip), vehicle: saline 100 % of control

O=C(O)CCc1ccccc1
inactive: dose: 75.0 mg/kg/injection, schedule: Q01DX009 (ip), vehicle: saline with Tween-80 95 % of control | [7] 104 % of control | dose: 150.0 mg/kg/injection, schedule: Q01DX009 (ip), vehicle: saline with Tween-80 109 % of control | [8] 100 % of control | dose: 300.0 mg/kg/injection, schedule: Q01DX009 (ip), vehicle: saline with Tween-80 100 % of control | [9] 100 % of control

CCOC(O)C(Cl)(Cl)Cl (stereo unspecified)
inactive: [2] 100 % of control | [3] 100 % of control | [4] 100 % of control

COc1ccc2[nH]c3c(c2c1)CSc1ccccc1-3
inactive: [7] 91 % of control | [8] 108 % of control | [9] 108 % of control

O=C(O)Cc1ccc(C2CCCCC2)cc1
inactive: [10] 91 % of control and 95 % of control | [11] 90 % of control | [12] 90 % of control and 100 % of control

Cc1cc(C)c(S(=O)(=O)ON=C2c3ccccc3-c3ccccc32)c(C)c1
inactive: dose: 25.0 mg/kg/injection, schedule: Q01DX001 (ip), vehicle: Klucel (hydroxypropylcellulose) (HPC) 100 % of control | dose: 50.0 mg/kg/injection, schedule: Q01DX001 (ip), vehicle: Klucel (hydroxypropylcellulose) (HPC) 109 % of control | [7] 113 % of control | [10] 105 % of control | [8] 95 % of control | [11] 95 % of control | [9] 109 % of control | [12] 110 % of control

CCCCSCC(N)C(=O)OC (stereo unspecified)
inactive: dose: 100.0 mg/kg/injection, schedule: Q01DX009 (ip), vehicle: saline 103 % of control | dose: 100.0 mg/kg/injection, schedule: Q04DX003 (ip), vehicle: saline 100 % of control | dose: 200.0 mg/kg/injection, schedule: Q01DX009 (ip), vehicle: saline 111 % of control | dose: 200.0 mg/kg/injection, schedule: Q04DX003 (ip), vehicle: saline 104 % of control | dose: 400.0 mg/kg/injection, schedule: Q01DX009 (ip), vehicle: saline 106 % of control | dose: 400.0 mg/kg/injection, schedule: Q04DX003 (ip), vehicle: saline 109 % of control

NNc1n[nH]c(=S)n1N
inactive: dose: 6.25 mg/kg/injection, schedule: Q04DX003 (ip), vehicle: saline with Tween-80 104 % of control | dose: 12.5 mg/kg/injection, schedule: Q04DX003 (ip), vehicle: saline with Tween-80 100 % of control | dose: 25.0 mg/kg/injection, schedule: Q04DX003 (ip), vehicle: saline with Tween-80 95 % of control

OCC(O)C(O)C(O)CO (stereo unspecified)
inactive: dose: 100.0 mg/kg/injection, schedule: Q01DX010 (ip), vehicle: saline 100 % of control | dose: 400.0 mg/kg/injection, schedule: Q01DX010 (ip), vehicle: saline 100 % of control

CC[Se](CC)CC.CC[Se](CC)CC.C[CH2][Ge]([CH2]C)[O][Ge]([CH2]C)[CH2]C
inactive: [1] 107 % of control

O=C(c1ccccc1)c1c(-c2ccccc2)c(C(=O)c2ccccc2)c2ccccc2c1Cl
inactive: dose: 12.5 mg/kg/injection, schedule: Q01DX009 (ip), vehicle: water 102 % of control | dose: 25.0 mg/kg/injection, schedule: Q01DX009 (ip), vehicle: water 113 % of control | dose: 25.0 mg/kg/injection, schedule: Q04DX003 (ip), vehicle: water 114 % of control | dose: 50.0 mg/kg/injection, schedule: Q01DX009 (ip), vehicle: water 102 % of control | dose: 50.0 mg/kg/injection, schedule: Q04DX003 (ip), vehicle: water 104 % of control | dose: 100.0 mg/kg/injection, schedule: Q01DX009 (ip), vehicle: water 109 % of control | dose: 100.0 mg/kg/injection, schedule: Q04DX003 (ip), vehicle: water 96 % of control | dose: 200.0 mg/kg/injection, schedule: Q01DX009 (ip), vehicle: water 96 % of control | dose: 200.0 mg/kg/injection, schedule: Q04DX003 (ip), vehicle: water 100 % of control | dose: 400.0 mg/kg/injection, schedule: Q01DX009 (ip), vehicle: water 102 % of control | dose: 400.0 mg/kg/injection, schedule: Q04DX003 (ip), vehicle: water 98 % of control

CCCCCCCCCC(=O)NO
inactive: dose: 100.0 mg/kg/injection, schedule: Q01DX001 (ip), vehicle: saline sonified 100 % of control | dose: 200.0 mg/kg/injection, schedule: Q01DX001 (ip), vehicle: saline sonified 100 % of control | dose: 400.0 mg/kg/injection, schedule: Q01DX001 (ip), vehicle: saline sonified 100 % of control

Nc1ncnc2c1ncn2C1(CO)OC(CO)C(O)C1O (stereo unspecified)
inactive: [10] 106 % of control | [11] 115 % of control | [12] 103 % of control

— PubChem BioAssay AID328 (DTP/NCI, 2004)
